The source of these data is US6025378A, “Bicyclic heterocyclic compounds” (Bayer Aktiengesellschaft, priority 1995, dated 2000).

As usually defined, the pIC50 is the negative decadic logarithm of the IC50, by convention in mol/L.

pIC50: −log10 of the molar value.

The first test has as its system ApoB-100-associated lipoproteins released from HepG2 cells. As to the kind of experiment: Inhibition of the release of ApoB-100-associated lipoproteins from cultured hepatic HepG2 cells (immunoassay for human LDL). The class given is cell-based. As to conditions: HepG2 cells; culture supernatant; absorption at 450 nm inhibited by 50% vs solvent control; read-out: Apo B IC50. The method, then: 1. Inhibition of the Release of ApoB-100-associated Lipoproteins
The test for detection of the inhibition of the release of ApoB-100-associated lipoproteins from hepatic cells was carried out in vitro with cultured hepatic cells, preferably with cells of the human line HepG2. These cells are cultured under standard conditions in medium for culture of eukaryotic cells, preferably in RPMI 1640 with 10% foetal calf serum. HepG2 cells synthesize and secrete into the culture supernatant ApoB-100-associated lipoprotein particles, which are in principle built up similarly to the VLDL and LDL particles which are to be found in plasma.
These particles can be detected with an immunoassay for human LDL. This immunoassay is carried out with antibodies which have been induced against human LDL in rabbits under standard conditions. The anti-LDL antibodies (rab-anti-LDL-Ab) were purified by affinity chromatography on an immunosorbent with human LDL. These purified rab-anti-LDL-Ab are adsorbed onto the surface of plastic. This adsorption is expediently carried out on the plastic surface of microtiter plates with 96 wells, preferably on MaxiSorp plates. If ApoB-100-associated particles are present in the supernatant of Hep-G2 cells, these can bond to the insolubilized rab-anti-LDL-Ab, and an immune complex bonded to the plastic surface is formed. Non-bonded proteins are removed by washing The immune complex on the plastic source is detected with monoclonal antibodies, which have been induced against human LDL and purified under standard conditions. These antibodies were conjugated with the enzyme peroxidase. Peroxidase converts the colourless substrate TMB into a coloured product in the presence of H2 O2. After acidification of the reaction mixture with H2 SO4, the specific absorption of light is determined at 450 nm, this being a measure of the amount of ApoB-100-associated particles wich had been secreted by the HepG2 cells into the culture supernatant.
The IC50 value indicates the concentration of substance at which the absorption of light is inhibited by 50% compared with the control (solvent control without the substance).
Turning to `CSc1nc2ccccc2n1Cc1ccc(C(C(=O)N[C@@H](CO)c2ccccc2)C2CCCC2)cc1` (single isomer, unassigned) [Example 3], the pIC50 was 7.94.
Regarding `CSc1nc2ccccc2n1Cc1ccc(C(C(=O)N[C@@H](CO)c2ccccc2)C2CCCC2)cc1` (single isomer, unassigned) [Example 4], the pIC50 is 6.53.
Regarding `CSc1nc2ccccc2n1Cc1ccc(C(C(=O)N[C@@H](CO)c2ccccc2)C2CCCCCC2)cc1` (single isomer, unassigned) [Example 6], the pIC50 is 8.10.
For `CSc1nc2ccccc2n1Cc1ccc(C(C(=O)N[C@@H](CO)c2ccccc2)C2CCCCCC2)cc1` (single isomer, unassigned) [Example 7], the negative logarithm of the IC50 (pIC50) is 6.82.
On the same count and under the same terms, as for `O=C(N[C@@H](CO)c1ccccc1)C(c1ccc(Cn2c(SCc3ccccc3)nc3ccccc32)cc1)C1CCCC1` (single isomer, unassigned) [Example 13], the figure is 7.84; as for `O=C(CSc1nc2ccccc2n1Cc1ccc(C(C(=O)N[C@@H](CO)c2ccccc2)C2CCCC2)cc1)c1ccccc1` (single isomer, unassigned) [Example 18], 6.03; as for `O=C(CSc1nc2ccccc2n1Cc1ccc(C(C(=O)N[C@@H](CO)c2ccccc2)C2CCCC2)cc1)c1ccccc1` (single isomer, unassigned) [Example 19], 6.41.
With `Cc1cc2nc(C(F)(F)F)n(Cc3ccc(C(C(=O)N[C@@H](CO)c4ccccc4)C4CCCC4)cc3)c2cc1C` (single isomer, unassigned) [Example 23], the negative logarithm of the IC50 (pIC50) is 6.83.
Turning to `Cc1cc2nc(C(F)(F)F)n(Cc3ccc(C(C(=O)N[C@@H](CO)c4ccccc4)C4CCCC4)cc3)c2cc1C` (single isomer, unassigned) [Example 24], the pIC50 is 7.79.
With `O=C(N[C@@H](CO)c1ccccc1)C(c1ccc(Cn2c(-c3cscn3)nc3ccccc32)cc1)C1CCCC1` (single isomer, unassigned) [Example 26], the negative-log IC50 (pIC50) was 8.35.
As to `O=C(N[C@@H](CO)c1ccccc1)C(c1ccc(Cn2c(-c3cscn3)nc3ccccc32)cc1)C1CCCC1` (single isomer, unassigned) [Example 27], the pIC50 was 7.04.
On to `O=C(N[C@@H](CO)c1ccccc1)C(c1ccc(Cn2c(-c3cscn3)nc3ccccc32)cc1)C1CCCCCC1` (single isomer, unassigned) [Example 30], for which the negative logarithm of the IC50 (pIC50) was 6.95.
For `O=C(N[C@@H](CO)c1ccccc1)C(c1ccc(Cn2c(-c3cscn3)nc3ccccc32)cc1)C1CCCCCC1` (single isomer, unassigned) [Example 31], the pIC50 is 8.14.
For `Cc1nc(-c2nc3ccccc3n2Cc2ccc(C(C(=O)N[C@@H](CO)c3ccccc3)C3CCCC3)cc2)cs1` (single isomer, unassigned) [Example 34], the pIC50 was 7.58.
In the case of `Cc1nc(-c2nc3ccccc3n2Cc2ccc(C(C(=O)N[C@@H](CO)c3ccccc3)C3CCCC3)cc2)cs1` (single isomer, unassigned) [Example 35], the pIC50 was 7.95.

Staying with this test, now noted: Homo sapiens, HepG2, HepG2 cells; culture supernatant; absorption at 450 nm inhibited by 50% vs solvent control; read-out: Apo B IC50.
`C[S+]([O-])c1nc2ccccc2n1Cc1ccc(C(C(=O)N[C@@H](CO)c2ccccc2)C2CCCCCC2)cc1` (mixture of isomers) [Example 79, 2-(R/S)-Cycloheptyl-N-(2-hydroxy-1-(R)-phenylethyl)-2-[4-(2-methyl-(R/S)-sulphinyl-benzimidazol-1-ylmethyl)phenyl]acetamide]: the pIC50 was 7.82.
On to `O=C(N[C@@H](CO)c1ccccc1)C(c1ccc(Cn2c(SCc3ccccc3)nc3ccccc32)cc1)C1CCCC1` (single isomer, unassigned) [Example 12], for which the negative-log IC50 (pIC50) is 7.90.
For the compound `Cc1nc2ccccc2c(=O)n1Cc1ccc(C(C(=O)N[C@@H](CO)c2ccccc2)C2CCCC2)cc1` (stereo partly drawn) [Example 1, 2-Cyclopentyl-N-(2-hydroxy-1-(R)-phenylethyl)-2-[4-(2-methyl-4-oxo-4H-quinazolin-3-yl-methyl)phenyl]acetamide], the negative logarithm of the IC50 (pIC50) was 7.35.
Consider `CSc1nc2ccccc2n1Cc1ccc(C(C(=O)N[C@@H](CO)c2ccccc2)C2CCCC2)cc1` (stereo partly drawn) [Example 2], for which the negative-log IC50 (pIC50) was 7.42.
In the case of `CSc1nc2ccccc2n1Cc1ccc(C(C(=O)N[C@@H](CO)c2ccccc2)C2CCCCCC2)cc1` (stereo partly drawn) [Example 5], the negative logarithm of the IC50 (pIC50) was 7.44.
Same read-out and setting: as for `CSc1nc2cc(C)c(C)cc2n1Cc1ccc(C(C(=O)N[C@@H](CO)c2ccccc2)C2CCCC2)cc1` (stereo partly drawn) [Example 8], the figure is 8.33.
In the case of `CCSc1nc2ccccc2n1Cc1ccc(C(C(=O)N[C@@H](CO)c2ccccc2)C2CCCC2)cc1` (stereo partly drawn) [Example 9], the pIC50 is 8.55.
`C=CCSc1nc2ccccc2n1Cc1ccc(C(C(=O)N[C@@H](CO)c2ccccc2)C2CCCC2)cc1` (stereo partly drawn) [Example 10]: the negative logarithm of the IC50 (pIC50) was 8.02.
On to `O=C(N[C@@H](CO)c1ccccc1)C(c1ccc(Cn2c(SCc3ccccc3)nc3ccccc32)cc1)C1CCCC1` (stereo partly drawn) [Example 11], for which the pIC50 is 8.33.
On the same count and under the same terms, as for `O=C(N[C@@H](CO)c1ccccc1)C(c1ccc(Cn2c(SCc3c(Cl)cccc3Cl)nc3ccccc32)cc1)C1CCCC1` (stereo partly drawn) [Example 14], the figure is 6.89; as for `O=C(N[C@@H](CO)c1ccccc1)C(c1ccc(Cn2c(Cc3ccccc3)nc3ccccc32)cc1)C1CCCC1` (stereo partly drawn) [Example 20], 6.61.
For `O=C(N[C@@H](CO)c1ccccc1)C(c1ccc(Cn2c(-c3cscn3)nc3ccccc32)cc1)C1CCCC1` (stereo partly drawn) [Example 25], the negative logarithm of the IC50 (pIC50) was 8.14.
In the case of `O=C(N[C@@H](CO)c1ccccc1)C(c1ccc(Cn2c(-c3cscn3)nc3ccccc32)cc1)C1CCCCC1` (stereo partly drawn) [Example 28], the negative logarithm of the IC50 (pIC50) is 7.55.
On to `O=C(N[C@@H](CO)c1ccccc1)C(c1ccc(Cn2c(-c3cscn3)nc3ccccc32)cc1)C1CCCCCC1` (stereo partly drawn) [Example 29], for which the pIC50 is 8.03.
Regarding `O=C(NCc1ccccc1)C(c1ccc(Cn2c(-c3cscn3)nc3ccccc32)cc1)C1CCCCCC1` (stereo not drawn) [Example 32], the pIC50 is 8.28.
As for `Cc1nc(-c2nc3ccccc3n2Cc2ccc(C(C(=O)N[C@@H](CO)c3ccccc3)C3CCCC3)cc2)cs1` (stereo partly drawn) [Example 33], the pIC50 is 8.28.
Turning to `O=C(N[C@@H](CO)c1ccccc1)C(c1ccc(Cn2c(-c3csc(-c4ccccc4)n3)nc3ccccc32)cc1)C1CCCC1` (stereo partly drawn) [Example 36], the negative-log IC50 (pIC50) is 8.04.
Take `O=C(N[C@@H](CO)c1ccccc1)C(c1ccc(Cn2c(-c3ccsc3)nc3ccccc32)cc1)C1CCCC1` (stereo partly drawn) [Example 37]: the pIC50 was 8.44.
For the compound `Cc1ccc2c(nc(-c3ccsc3)n2Cc2ccc(C(C(=O)N[C@@H](CO)c3ccccc3)C3CCCC3)cc2)c1C` (stereo partly drawn) [Example 38], the negative-log IC50 (pIC50) is 7.44.
Still for that read-out and setting: the figure for `O=C(N[C@@H](CO)c1ccccc1)C(c1ccc(Cn2c(-c3cccs3)nc3ccccc32)cc1)C1CCCC1` (stereo partly drawn) [Example 39] is 7.09; for `Cc1ccc2c(nc(-c3cccs3)n2Cc2ccc(C(C(=O)N[C@@H](CO)c3ccccc3)C3CCCC3)cc2)c1C` (stereo partly drawn) [Example 40] it is 7.16; for `O=C(N[C@@H](CO)c1ccccc1)C(c1ccc(Cn2c(-c3cc4ccccc4s3)nc3ccccc32)cc1)C1CCCC1` (stereo partly drawn) [Example 41] it is 7.97.
On the same count and under the same terms, as for `O=C(N[C@@H](CO)c1ccccc1)C(c1ccc(Cn2c(-c3ccccn3)nc3ccccc32)cc1)C1CCCC1` (stereo partly drawn) [Example 44], the figure is 7.95; as for `O=C(N[C@@H](CO)c1ccccc1)C(c1ccc(Cn2c(-c3ccccn3)nc3ccccc32)cc1)C1CCCCCC1` (stereo partly drawn) [Example 47], 7.73.
